According to paper PMC10010335, “Depletion of Mannose Receptor–Positive Tumor-associated Macrophages via a Peptide-targeted Star-shaped Polyglutamate Inhibits Breast Cancer Progression in Mice” (Cancer Research Communications, 2022):
Where a SMILES comes first, the peptide text is derived from it. Where no end group is shown, it is not given here. The star is where a group is joined. 5FAM = O=C1OC2(c3ccc(O)cc3Oc3cc(O)ccc32)c2ccc(C(=O)*)cc21; Ahx = NCCCCCC(=O)O

Tests used:
[1] = test system: orthotopic TNBC (4T1 cells); assay: OximUNO treatment of orthotopic TNBC; type: in vivo, Balb/c mice
Method: Two tumor models were used for treatment studies: the orthotopic TNBC model where 5 × 10^4 4T1 cells in 50 μL of PBS were injected subcutaneously into fourth mammary fat pad; and the experimental metastasis of TNBC model where 2 × 10^5 4T1-GFP cells in 100 μL of PBS were intravenously injected.
A total of 5 × 10^4 4T1 cells in 50 μL of PBS were subcutaneously injected into the fourth mammary fat pad of 8–12 weeks old female Balb/c mice. On day 7, mice were sorted into four groups by tumor volume measured using a digital caliper (Mitutoyo). Tumor volume was calculated on the basis of the formula (W^2 × L)/2, where W is the tumor's width and L is the tumor's length. […] Mouse bodyweight and tumor volumes were monitored every other day. […] CD206 was detected using rat anti-mouse CD206 (dilution 1/200), CD8 using rat anti-mouse CD8 (dilution 1/75 BioLegend, catalog no. 100701), FOXP3 using rat anti-mouse FOXP3 (dilution 1/75, BioLegend, catalog no. 126401) as primary antibodies, Alexa Fluor goat anti-rat 647 (dilution 1/300 for CD206 and 1/200 for CD8, FOXP3,) was used as a secondary antibody for all markers. […]
For H&E staining, 2-μm–thick sections were cut from paraffin-embedded blocks. […] Images were analyzed using the QuPath program (version 0.1.2; ref. [52]). […] Stained heart sections were also scanned using a slide scanner and analysed with the QuPath program. […]

[2] = test system: primary human M2-resembling (MCSF + IL4 polarized) macrophages; assay: In vitro cytotoxicity (MTT), M2-resembling macrophages; type: cell-based; details: 15-minute incubation at 33 and 100 μmol/L DOX, washed, 48 hours, N = 3 wells
Method: Human peripheral blood mononuclear cells (PBMC) were purified from human blood buffy coat using Ficoll Paque Plus (GE Healthcare, catalog no. 17-1440-02) reagent and CD14^+ microbeads (MACS Miltenyi Biotec, catalog no. 130-050-201) as described previously ([42]). A total of 1.2 × 10^5 cells in 50 μL of RPMI1640 medium were seeded on an FBS-coated 96-well plate. To obtain optimal macrophage attachment and M2 resembling, 50 μL of IL4 (50 ng/mL, BioLegend, catalog no. 574002) and MCSF (50 ng/mL, BioLegend, catalog no. 574802) mixture was added to the wells. The medium was replenished by substituting half of the medium with fresh medium containing IL4 and MCSF every other day for 6 days. To obtain M1-resembling macrophages, monocytes were incubated with M-CSF (50 ng/mL) for 6 days, replenishing every other day with fresh medium containing MCSF and on day 6, 50 μL of MCSF, lipopolysaccharide (LPS, 100 ng/mL, Sigma-Aldrich, catalog no. L4391) and IFNγ (20 ng/mL, BioLegend, catalog no. 570202) was added and incubated overnight. […] After incubation, wells were washed, fresh medium added, and cells incubated for 48 hours at 37°C. […] Absorbance was read at 580 nm using a plate reader (Tecan Sunrise) and the corresponding Magellan 7 program. […] After that, cells were washed 2× with 200 μL of RB and read using BD Accuri 6 plus (BD Biosciences). […]

[3] = cited from earlier work
Text: On the basis of these ante ...

[4] = same mice strain, sex, age; cited from earlier work

With `COc1cccc2c1C(=O)c1c(O)c3c(c(O)c1C2=O)C[C@@](O)(C(=O)CO)C[C@@H]3O[C@H]1C[C@H](N)[C@H](O)[C@H](C)O1` [DOX, doxorubicin] the “CD206 expression in primary tumor” value ([1]; IF, compared with PBS) was “upregulated CD206 expression”, the mouse bodyweight ([1]; i.p., 2 mg/kg of DOX every other day, nine injections) was “significant decrease in mouse bodyweight” and the “toxicity (MTT cell viability)” value [2] was “only displayed toxicity in MCSF + IL4 polarized macrophages at 100 μmol/L”.
In the case of `C[C@H](NC(=O)CNC(=O)[C@@H]1CCCN1C(=O)[C@H](CO)NC(=O)[C@H](CS)NC(=O)CCCCCNC(=O)c1ccc2c(c1)C(=O)OC21c2ccc(O)cc2Oc2cc(O)ccc21)C(=O)N[C@@H](CCCCN)C(=O)O` [FAM-mUNO] ({5FAM-Ahx}-CSPGAK-OH), the “degradation of FAM coupled through an amide bond, in serum” value [3] is given as “negligible degradation”.
In the case of CSPGAK-OH [mUNO], the “half-life, intraperitoneal versus intravenous administration” value [4] is given as “substantially longer half-life”.
